Results taken from patent US20200407717A1, “METHODS OF MODULATING ANTISENSE ACTIVITY” (Ionis Pharmaceuticals, Inc., priority 2018, published 2020).
e = 2'-O-(2-methoxyethyl) (MOE); d = 2'-deoxy (DNA)

Test system: Malat1 RNA
Experiment: Antisense activity by RT-qPCR, Malat1, A431 cells
Format: cell-based
Experimental: A431 cells were grown at 10,000 cells per well and pre-treated with a variety of growth factors to determine if the addition of exogenous growth factors affects antisense activity or uptake of modified antisense oligonucleotides in a cell. The growth factors used were EGF, insulin growth factor (IGF), transforming growth factor (TGF), […] (VEGF), hepatocyte growth factor (HGF), platelet growth factor (PGF) and fibroblasts growth factor (FGF). To test antisense activity, cells were treated for 4 hours with a growth factor or vehicle alone, and then treated with compound no. 25690 (complementary to Drosha), compound no. 395254 (complementary to Malat1), or vehicle alone. RNA was isolated from the cells and Drosha or Malat1 RNA levels were measured by RT-qPCR. Human primer probe set 13816 (forward sequence […], designated herein as SEQ ID NO: 3; reverse sequence […], designated herein as SEQ ID NO: 4; probe sequence […], designated herein as SEQ ID NO: 5) was used to measure Drosha mRNA levels and primer probe set RTS2736 (forward sequence […], designated herein as SEQ ID NO: 6; reverse sequence […], designated herein as SEQ ID NO: 7; probe sequence TGCCACATCGCCACCCCGT, designated herein as SEQ ID NO: 8) was used to measure Malat1 RNA levels. Drosha and Malat1 RNA levels were normalized to total RNA content, as measured by RIBOGREEN®. Results are presented in the tables below as normalized RNA levels, relative to untreated control cells.
A431 cells were treated with EGF or TGF at 200 ng/mL in the presence or absence of 1 μM of the EGFR tyrosine kinase inhibitor PD174265. The cells were then treated with compound no. 25690 or compound no. 395254 as in Example 8. Total RNA was isolated and analyzed by RT-qPCR, as in Example 8.
Following siRNA treatment, cells were treated with compound no. 25690 or compound no. 395254 in the presence or absence of EGF. 16 hours after treatment with a PS-ASO with or without EGF, cells were harvested, and RNA levels were analyzed via RT-qPCR as in Example 8.

## GGCATATGCAGATAATGTTC (sugars from the 5' end e5 d10 e5, all phosphorothioate, methylation of C not given here) [compound 395254]
125 nM, EGFR siRNA-2
  Malat1 RNA (% Control): 26.6 % Control
125 nM, EGFR siRNA-2 + EGF
  Malat1 RNA (% Control): 55.2 % Control
125 nM, EGFR siRNA-2, Table 27
  Malat1 RNA (% Control): 53.1 % Control
125 nM, TGF
  Malat1 RNA (% Control): 74.4 % Control
125 nM, TGF+PD174265
  Malat1 RNA (% Control): 47.0 % Control
125 nM, TGF, Table 21
  Malat1 RNA (% Control): 33.1 % Control
250 nM, Control
  Malat1 RNA (% Control): 74.0 % Control
250 nM, Control Luciferase siRNA
  Malat1 RNA (% Control): 16.3 % Control
250 nM, Control Luciferase siRNA, Table 27
  Malat1 RNA (% Control): 27.6 % Control
250 nM, Control luciferase + EGF
  Malat1 RNA (% Control): 24.9 % Control
250 nM, Control, Table 21
  Malat1 RNA (% Control): 37.6 % Control
250 nM, EGF
  Malat1 RNA (% Control): 43.6 % Control
250 nM, EGFR siRNA-1
  Malat1 RNA (% Control): 19.7 % Control
250 nM, EGFR siRNA-2
  Malat1 RNA (% Control): 21.5 % Control
250 nM, EGFR siRNA-2 + EGF
  Malat1 RNA (% Control): 34.0 % Control
250 nM, EGFR siRNA-2, Table 27
  Malat1 RNA (% Control): 29.7 % Control
250 nM, TGF
  Malat1 RNA (% Control): 29.4 % Control
250 nM, TGF+PD174265
  Malat1 RNA (% Control): 34.9 % Control
250 nM, TGF, Table 21
  Malat1 RNA (% Control): 19.7 % Control
500 nM, Control
  Malat1 RNA (% Control): 44.5 % Control
500 nM, Control Luciferase siRNA
  Malat1 RNA (% Control): 11.9 % Control
500 nM, Control Luciferase siRNA, Table 27
  Malat1 RNA (% Control): 18.9 % Control
500 nM, Control luciferase + EGF
  Malat1 RNA (% Control): 17.1 % Control
500 nM, Control, Table 21
  Malat1 RNA (% Control): 28.9 % Control
500 nM, EGF
  Malat1 RNA (% Control): 26.1 % Control
500 nM, EGFR siRNA-1
  Malat1 RNA (% Control): 16.9 % Control
500 nM, EGFR siRNA-2
  Malat1 RNA (% Control): 15.1 % Control
500 nM, EGFR siRNA-2 + EGF
  Malat1 RNA (% Control): 24.6 % Control
500 nM, EGFR siRNA-2, Table 27
  Malat1 RNA (% Control): 23.4 % Control
500 nM, TGF
  Malat1 RNA (% Control): 27.9 % Control
500 nM, TGF+PD174265
  Malat1 RNA (% Control): 27.1 % Control
500 nM, TGF, Table 21
  Malat1 RNA (% Control): 13.5 % Control
1000 nM, Control
  Malat1 RNA (% Control): 27.0 % Control
1000 nM, Control Luciferase siRNA
  Malat1 RNA (% Control): 7.9 % Control
1000 nM, Control Luciferase siRNA, Table 27
  Malat1 RNA (% Control): 18.2 % Control
1000 nM, Control luciferase + EGF
  Malat1 RNA (% Control): 15.2 % Control
1000 nM, Control, Table 21
  Malat1 RNA (% Control): 15.2 % Control
1000 nM, EGF
  Malat1 RNA (% Control): 15.1 % Control
1000 nM, EGFR siRNA-1
  Malat1 RNA (% Control): 11.3 % Control
1000 nM, EGFR siRNA-2
  Malat1 RNA (% Control): 12.7 % Control
1000 nM, EGFR siRNA-2 + EGF
  Malat1 RNA (% Control): 21.4 % Control
1000 nM, EGFR siRNA-2, Table 27
  Malat1 RNA (% Control): 17.2 % Control
1000 nM, TGF
  Malat1 RNA (% Control): 14.2 % Control
1000 nM, TGF+PD174265
  Malat1 RNA (% Control): 21.2 % Control
1000 nM, TGF, Table 21
  Malat1 RNA (% Control): 7.2 % Control
2000 nM, Control
  Malat1 RNA (% Control): 24.1 % Control
2000 nM, Control Luciferase siRNA
  Malat1 RNA (% Control): 7.6 % Control
2000 nM, Control Luciferase siRNA, Table 27
  Malat1 RNA (% Control): 15.2 % Control
2000 nM, Control luciferase + EGF
  Malat1 RNA (% Control): 10.2 % Control
2000 nM, Control, Table 21
  Malat1 RNA (% Control): 11.2 % Control
2000 nM, EGF
  Malat1 RNA (% Control): 9.9 % Control
2000 nM, EGFR siRNA-1
  Malat1 RNA (% Control): 10.2 % Control
2000 nM, EGFR siRNA-2
  Malat1 RNA (% Control): 11.0 % Control
2000 nM, EGFR siRNA-2 + EGF
  Malat1 RNA (% Control): 18.3 % Control
2000 nM, EGFR siRNA-2, Table 27
  Malat1 RNA (% Control): 15.2 % Control
2000 nM, TGF
  Malat1 RNA (% Control): 9.5 % Control
2000 nM, TGF+PD174265
  Malat1 RNA (% Control): 10.2 % Control
2000 nM, TGF, Table 21
  Malat1 RNA (% Control): 5.2 % Control
4000 nM, Control
  Malat1 RNA (% Control): 17.9 % Control
4000 nM, Control Luciferase siRNA
  Malat1 RNA (% Control): 1.3 % Control
4000 nM, Control Luciferase siRNA, Table 27
  Malat1 RNA (% Control): 11.2 % Control
4000 nM, Control luciferase + EGF
  Malat1 RNA (% Control): 7.2 % Control
4000 nM, Control, Table 21
  Malat1 RNA (% Control): 7.2 % Control
4000 nM, EGF
  Malat1 RNA (% Control): 10.3 % Control
4000 nM, EGFR siRNA-1
  Malat1 RNA (% Control): 7.8 % Control
4000 nM, EGFR siRNA-2
  Malat1 RNA (% Control): 11.1 % Control
4000 nM, EGFR siRNA-2 + EGF
  Malat1 RNA (% Control): 17.2 % Control
4000 nM, EGFR siRNA-2, Table 27
  Malat1 RNA (% Control): 15.2 % Control
4000 nM, TGF
  Malat1 RNA (% Control): 11.6 % Control
4000 nM, TGF+PD174265
  Malat1 RNA (% Control): 7.2 % Control
4000 nM, TGF, Table 21
  Malat1 RNA (% Control): 5.7 % Control
Control (no growth factor), Table 16
  IC50: 36 ± 3.2 nM
Control Luciferase siRNA, Table 25
  IC50: 46 ± 5.3 nM
Control Luciferase siRNA, Table 27
  IC50: 49 ± 6.3 nM
Control luciferase + EGF, Table 27
  IC50: 26 ± 2.4 nM
Control, Table 21
  IC50: 50 ± 7 nM
EGF pre-treatment 4 hours, Table 16
  IC50: 15 ± 3 nM
EGFR siRNA-1, Table 25
  IC50: 86 ± 9.3 nM
EGFR siRNA-2 + EGF, Table 27
  IC50: 87 ± 4.2 nM
EGFR siRNA-2, Table 25
  IC50: 100 ± 9.7 nM
EGFR siRNA-2, Table 27
  IC50: 89 ± 5.9 nM
TGF 200 ng/mL + 1 μM PD174265, Table 21
  IC50: 56 ± 8.1 nM
TGF 200 ng/mL, Table 21
  IC50: 21 ± 4 nM
TGF pre-treatment 4 hours, Table 16
  IC50: 13 ± 2.1 nM
Cells treated with IGF, FGF, HGF, VEGF or PGF relative to PS-ASO alone (data not shown)
  half maximal inhibitory concentration, Malat1: unchanged
